We go through one substance from publication PMC11583740, “Genotype-specific effects of elamipretide in patients with primary mitochondrial myopathy: a post hoc analysis of the MMPOWER-3 trial” (Orphanet Journal of Rare Diseases, 2024).

Test [1] has as its system adult patients with primary mitochondrial myopathy (PMM). Nature of the test: Six-Minute Walk Test (6MWT) in the MMPOWER-3 Phase 3 trial, post hoc analysis by genotype. The test is classed as in vivo, human. As to the method: Full details of MMPOWER-3 have been previously described. In brief, MMPOWER-3 was a 24-week, randomized (1:1), double-blind, parallel-group, placebo-controlled clinical trial for adult patients with PMM, in which subjects received elamipretide 40 mg subcutaneously once daily or placebo [6]. In the original analysis of MMPOWER-3, subjects were stratified by the type of pathogenic DNA variant (nDNA vs mtDNA) determined to be the primary cause of PMM as approved by the adjudication committee. Pathogenic DNA variants causing PMM were subclassified as causing mtDNA or nDNA disorders. The prespecified exploratory analysis was conducted to further examine the effects of elamipretide on the change from baseline to week 24 in the 6MWT by genetic subgroups. Subject demographics at baseline have been previously published in detail.
In the original analysis of MMPOWER-3, the efficacy of elamipretide was analyzed by genetic pathogenic variant subclass (mtDNA vs. nDNA) utilizing a mixed model repeated measures (MMRM). In the new exploratory analysis, the effect of elamipretide on the least squares (LS) mean change from baseline in distance walked on the 6MWT at 4 weeks, 12 weeks, and end of treatment (week 24) was examined as a function of gene variants using subjects from the MMPOWER-3 per-protocol population who successfully completed the trial. The analysis evaluated 6MWT results by specific mtDNA and nDNA genotypes. Efficacy in the mtDNA replisome subgroup was further assessed by the presence of the chronic progressive external ophthalmoplegia (CPEO) as a phenotype.

The test system is the same in test [2]. The settings on record: elamipretide 40 mg s.c. once daily; nDNA cohort n = 59; placebo 0.3 m; p = 0.03; previously published post-hoc analysis; cited from earlier work. From the text:
Baseline functional characteristics of these patients is described elsewhere. At week 24, subjects in ...

In test [3] the test system is subjects with Barth Syndrome. The settings on record: after approximately 36 weeks in the 168-week open-label phase; n = 8; p = 0.02; cited from earlier work. From the text:
NuPOWER was designed to evaluate the efficacy and tolerability of elamipretide in nPMD subjects, with the primary efficacy endpoint being distance walked (meters) on the 6MWT [11]. Elamipretide was also studied in subjects with Barth Syndrome (TAZPOWER, SPIBA-201, NCT03098797), which ...

Test [4] relates to adult patients with primary mitochondrial myopathy (PMM). The settings on record: post-hoc genetic subgroup analysis of the co-primary endpoint; previously published; cited from earlier work. As to the method: Elamipretide is the first experimental therapeutic compound progressing to a Phase 3 clinical trial in patients with PMM (MMPOWER-3). This trial followed the Phase 1/2 (MMPOWER-1) and Phase 2 (MMPOWER-2) clinical trials, in which treatment with elamipretide was analyzed in patients with PMM.

elamipretide: in test [1] (elamipretide 40 mg s.c. once daily, 24 weeks, n = 21, placebo (n = 28) 42.4 m), the “6MWT change from baseline, MT-TL1 pathogenic variants” value is recorded as 25.3 m. The “6MWT improvement (change from baseline), mtDNA replisome post-hoc cohort” value in test [1] (elamipretide 40 mg s.c. once daily, mtDNA replisome cohort, placebo 2.0 ± 8.6 m, p = 0.06) was determined as 25.2 ± 8.7 m. For the same substance, the “LS mean (SE) change from baseline in 6MWT, replisome variants with CPEO phenotype” value in test [1] (elamipretide 40 mg s.c. once daily, week 24, n = 18, baseline mean 316.5 ± 17.5, placebo (n = 14) −8.0 ± 10.7 m, p = 0.0024) is on record as 37.3 ± 9.5 m. The “LS mean (SE) change from baseline in distance walked on 6MWT, mtDNA pathogenic variants” value in test [1] (elamipretide 40 mg s.c. once daily, week 24, n = 73, placebo (n = 73) 24.1 ± 6.3 m) came to 14.9 ± 6.4 m. For the same substance, the “Between-group difference in 6MWT change, mtDNA pathogenic variants” value in test [1] (week 24, elamipretide vs placebo, difference in favor of placebo) was determined as 9.2 m. In test [1] (week 24, n = 49), the “6MWT difference elamipretide vs placebo, single mtDNA deletions” value was “no observable differences”. Further, the “6MWT improvement, nDNA cohort” value in test [2] is 25.2 m. Further, the “Improvement in 6MWT, Barth Syndrome” value in test [3] is recorded as 95.9 m. The “PMMSA TFS, nDNA cohort compared with mtDNA cohort” value in test [4] is listed as “did not demonstrate a differential effect”.
